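Method: 48-hour compound exposure of cells in 96-well plates, five concentrations, linear interpolation of endpoints. GI50 is the concentration that inhibits growth by half. TGI: concentration producing complete growth inhibition.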
Legend:
Test in all cases: NCI anticancer screen, dose series, 48 h; in the data active = GI50 below about 0.43 µM; inactive = the rest
HOP-92 NSCLC = tested on: HOP-92 NSCLC
COLO 205 colon = tested on: COLO 205 colon
MDA-MB-435 = tested on: MDA-MB-435
U251 CNS = tested on: U251 CNS
SR leukemia = tested on: SR leukemia
NCI-H226 lung = tested on: NCI-H226 lung
UACC-62 melanoma = tested on: UACC-62 melanoma
OVCAR-5 ovarian = tested on: OVCAR-5 ovarian
SK-OV-3 ovarian = tested on: SK-OV-3 ovarian
OVCAR-8 ovarian = tested on: OVCAR-8 ovarian
SF-295 CNS = tested on: SF-295 CNS
NCI/ADR-RES ovarian = tested on: NCI/ADR-RES ovarian
NCI-H460 lung = tested on: NCI-H460 lung
HCT-15 colon = tested on: HCT-15 colon
HCC-2998 colon = tested on: HCC-2998 colon
M14 melanoma = tested on: M14 melanoma
SW-620 colon = tested on: SW-620 colon
RPMI-8226 leukemia = tested on: RPMI-8226 leukemia
TK-10 renal = tested on: TK-10 renal
A549 NSCLC = tested on: A549 NSCLC
HT29 colon = tested on: HT29 colon
RXF 393 renal = tested on: RXF 393 renal
BT-549 breast = tested on: BT-549 breast
SNB-19 CNS = tested on: SNB-19 CNS
MCF7 breast = tested on: MCF7 breast
SK-MEL-2 melanoma = tested on: SK-MEL-2 melanoma
CCRF-CEM leukemia = tested on: CCRF-CEM leukemia
HOP-62 NSCLC = tested on: HOP-62 NSCLC
OVCAR-3 ovarian = tested on: OVCAR-3 ovarian
HS 578T breast = tested on: HS 578T breast
IGROV1 ovarian = tested on: IGROV1 ovarian
EKVX NSCLC = tested on: EKVX NSCLC
HL-60(TB) leukemia = tested on: HL-60(TB) leukemia
SK-MEL-28 melanoma = tested on: SK-MEL-28 melanoma
NCI-H23 lung = tested on: NCI-H23 lung
OVCAR-4 ovarian = tested on: OVCAR-4 ovarian
UACC-257 melanoma = tested on: UACC-257 melanoma
HCT-116 colon = tested on: HCT-116 colon
MDA-MB-231 breast = tested on: MDA-MB-231 breast
T-47D breast = tested on: T-47D breast
CAKI-1 renal = tested on: CAKI-1 renal
786-0 renal = tested on: 786-0 renal
MOLT-4 leukemia = tested on: MOLT-4 leukemia
DU-145 prostate = tested on: DU-145 prostate
K-562 leukemia = tested on: K-562 leukemia
PC-3 prostate = tested on: PC-3 prostate
LOX IMVI melanoma = tested on: LOX IMVI melanoma
SK-MEL-5 melanoma = tested on: SK-MEL-5 melanoma
SN12C renal = tested on: SN12C renal
SF-539 CNS = tested on: SF-539 CNS
SF-268 CNS = tested on: SF-268 CNS
NCI-H522 lung = tested on: NCI-H522 lung
A498 renal = tested on: A498 renal
SNB-75 CNS = tested on: SNB-75 CNS
MALME-3M melanoma = tested on: MALME-3M melanoma
KM12 colon = tested on: KM12 colon
ACHN renal = tested on: ACHN renal

NC(N)=NCCN1CCCCCc2ccccc21
> 10 µM: TGI (HOP-92 NSCLC) | TGI (COLO 205 colon) | TGI (MDA-MB-435) | TGI (U251 CNS) | TGI (SR leukemia) | TGI (NCI-H226 lung) | TGI (UACC-62 melanoma) | TGI (OVCAR-5 ovarian) | TGI (SK-OV-3 ovarian) | TGI (OVCAR-8 ovarian) | TGI (SF-295 CNS) | TGI (NCI/ADR-RES ovarian) | TGI (NCI-H460 lung) | TGI (HCT-15 colon) | TGI (HCC-2998 colon) | TGI (M14 melanoma) | TGI (SW-620 colon) | TGI (RPMI-8226 leukemia) | TGI (TK-10 renal) | TGI (A549 NSCLC) | TGI (HT29 colon) | TGI (RXF 393 renal) | TGI (BT-549 breast) | TGI (SNB-19 CNS) | TGI (MCF7 breast) | TGI (SK-MEL-2 melanoma) | TGI (CCRF-CEM leukemia) | TGI (HOP-62 NSCLC) | TGI (OVCAR-3 ovarian) | TGI (HS 578T breast) | TGI (IGROV1 ovarian) | TGI (EKVX NSCLC) | TGI (HL-60(TB) leukemia) | TGI (SK-MEL-28 melanoma) | TGI (NCI-H23 lung) | TGI (OVCAR-4 ovarian) | TGI (UACC-257 melanoma) | TGI (HCT-116 colon) | TGI (MDA-MB-231 breast) | TGI (T-47D breast) | TGI (CAKI-1 renal) | TGI (786-0 renal) | TGI (MOLT-4 leukemia) | TGI (DU-145 prostate) | TGI (K-562 leukemia) | TGI (PC-3 prostate) | TGI (LOX IMVI melanoma) | TGI (SK-MEL-5 melanoma) | TGI (SN12C renal) | TGI (SF-539 CNS) | TGI (SF-268 CNS) | TGI (NCI-H522 lung) | TGI (A498 renal) | TGI (SNB-75 CNS) | TGI (MALME-3M melanoma) | TGI (KM12 colon) | TGI (ACHN renal)

COc1cc2c(cc1OCCCCCN1CCN(CCCCCOc3cc4c(cc3OC)C(=O)C3CCC[C@H]3C=N4)CC1)N=C[C@@H]1CCCC1C2=O (some centres not stated)
> 51.8 µM: TGI (A549 NSCLC)
> 100 µM: TGI (U251 CNS) | TGI (SK-OV-3 ovarian) | TGI (SF-295 CNS) | TGI (NCI/ADR-RES ovarian) | TGI (HCT-15 colon) | TGI (HT29 colon) | TGI (SNB-19 CNS) | TGI (MCF7 breast) | TGI (HOP-62 NSCLC) | TGI (EKVX NSCLC) | TGI (SK-MEL-28 melanoma) | TGI (OVCAR-4 ovarian) | TGI (MDA-MB-231 breast) | TGI (T-47D breast) | TGI (DU-145 prostate) | TGI (PC-3 prostate) | TGI (LOX IMVI melanoma) | TGI (SF-268 CNS) | TGI (NCI-H522 lung) | TGI (KM12 colon) | TGI (ACHN renal)
> 37 µM: TGI (OVCAR-8 ovarian)
47.7 µM: TGI (MALME-3M melanoma)
14.6 µM: TGI (TK-10 renal)
80.9 µM: TGI (M14 melanoma)
7.87 µM: TGI (UACC-62 melanoma)
> 74.3 µM: TGI (NCI-H226 lung)
> 54.1 µM: TGI (OVCAR-5 ovarian)
> 94.2 µM: TGI (NCI-H460 lung)
> 68.7 µM: TGI (HS 578T breast)
5.48 µM: TGI (A498 renal)
> 93.4 µM: TGI (OVCAR-3 ovarian)
11.9 µM: TGI (RPMI-8226 leukemia)
7.15 µM: TGI (HL-60(TB) leukemia)
> 94.4 µM: TGI (SNB-75 CNS)
> 21.1 µM: TGI (NCI-H23 lung)
4.64 µM: TGI (786-0 renal)
39.6 µM: TGI (SR leukemia)
> 42.6 µM: TGI (HOP-92 NSCLC)
7.11 µM: TGI (RXF 393 renal)
21.6 µM: TGI (SK-MEL-5 melanoma)
5.26 µM: TGI (SK-MEL-2 melanoma)
39.9 µM: TGI (MDA-MB-435)
7 µM: TGI (MOLT-4 leukemia)
> 81.4 µM: TGI (CAKI-1 renal)
> 46 µM: TGI (UACC-257 melanoma)
> 25 µM: TGI (IGROV1 ovarian)
> 48.7 µM: TGI (CCRF-CEM leukemia)
11.3 µM: TGI (COLO 205 colon)
inactive: GI50 (HOP-92 NSCLC) 3.22 µM | GI50 (COLO 205 colon) 2.67 µM | GI50 (MDA-MB-435) 5.81 µM | GI50 (U251 CNS) 3.74 µM | GI50 (SR leukemia) 2.97 µM | GI50 (NCI-H226 lung) 4.8 µM | GI50 (UACC-62 melanoma) 2.35 µM | GI50 (OVCAR-5 ovarian) 5.52 µM | GI50 (SK-OV-3 ovarian) 43.2 µM | GI50 (OVCAR-8 ovarian) 7.89 µM | GI50 (SF-295 CNS) 6.19 µM | GI50 (NCI/ADR-RES ovarian) > 100 µM | GI50 (NCI-H460 lung) 3.38 µM | GI50 (HCT-15 colon) 52.9 µM | GI50 (HCC-2998 colon) 2.18 µM | GI50 (M14 melanoma) 17.5 µM | GI50 (SW-620 colon) 2.51 µM | GI50 (RPMI-8226 leukemia) 1.84 µM | GI50 (TK-10 renal) 5.05 µM | GI50 (A549 NSCLC) 10.7 µM | GI50 (HT29 colon) 9.47 µM | GI50 (RXF 393 renal) 2.23 µM | GI50 (BT-549 breast) 10.9 µM | GI50 (SNB-19 CNS) > 39.4 µM | GI50 (MCF7 breast) 2.72 µM | GI50 (SK-MEL-2 melanoma) 2.2 µM | GI50 (CCRF-CEM leukemia) 3.06 µM | GI50 (HOP-62 NSCLC) > 100 µM | GI50 (OVCAR-3 ovarian) 10.1 µM | GI50 (HS 578T breast) 5.63 µM | GI50 (IGROV1 ovarian) 3.88 µM | GI50 (EKVX NSCLC) 41.3 µM | GI50 (HL-60(TB) leukemia) 2.83 µM | GI50 (SK-MEL-28 melanoma) 19.4 µM | GI50 (NCI-H23 lung) 3.72 µM | GI50 (OVCAR-4 ovarian) 42 µM | GI50 (UACC-257 melanoma) 9.73 µM | GI50 (MDA-MB-231 breast) 3.84 µM | GI50 (T-47D breast) 6.89 µM | GI50 (CAKI-1 renal) 27.5 µM | GI50 (786-0 renal) 1.51 µM | GI50 (MOLT-4 leukemia) 2.55 µM | GI50 (DU-145 prostate) 12.9 µM | GI50 (K-562 leukemia) 6.51 µM | GI50 (PC-3 prostate) 3.16 µM | GI50 (LOX IMVI melanoma) 3.07 µM | GI50 (SK-MEL-5 melanoma) 3.34 µM | GI50 (SF-539 CNS) 9.82 µM | GI50 (SF-268 CNS) 3.51 µM | GI50 (NCI-H522 lung) 1.76 µM | GI50 (A498 renal) 2.07 µM | GI50 (SNB-75 CNS) 16.1 µM | GI50 (MALME-3M melanoma) 23 µM | GI50 (KM12 colon) 13.9 µM | GI50 (ACHN renal) 18.9 µM
46.6 µM: TGI (SW-620 colon)
> 86.8 µM: TGI (BT-549 breast)
6.02 µM: TGI (HCC-2998 colon)
28.4 µM: TGI (K-562 leukemia)
> 79 µM: TGI (SF-539 CNS)

Source: PubChem BioAssay (NCI)
